The source of these data is patent publication US10196482B2, “Mixed alkyl terminated polyether dendrons” (BASF SE, priority 2014, dated 2019).

A short description of series [1]: Solubilization of actives in 3 wt-% polymer solution (high-throughput, UV/VIS). The series is classed as physicochemical. The procedure:
Solubilization measurements were carried out with a highthroughput screening robot. This set up dosed 10 mg solid active and […] of the respective 3 wt-% liquid polymer solution (in CIPAC water D) into wells on a micro titer plate. After the addition of stirring bars and 24 hours incubation time the samples were filtrated via polypropylene filters in order to separate dissolved active and its solid form ated. The amount of solubilized active was determined via UV/VIS spectroscopy.

The conditions of series [2]: at 20° C.; cited from earlier work.
The mark [3] stands for this setting: 10 mg solid active, without polymer or in 3 wt-% polymer solution in CIPAC water D, 24 hours.

Converted amounts (≈) assume the structure as drawn.

For `CC(O)(Cn1cncn1)c1ccc(Oc2ccc(Cl)cc2)cc1C(F)(F)F` (centres unmarked) [BAS 750 F, 2-[4-(4-chlorophenoxy)-2-(trifluoromethyl)phenyl]-1-(1H-1,2,4-triazol-1-yl)propan-2-ol], in series [1] (setting [3]), the “Solubility of BAS 750 F” value was 15 pmm.

For `Cn1cc(C(=O)Nc2ccccc2-c2cc(F)c(F)c(F)c2)c(C(F)F)n1` [fluxapyroxad], the water solubility in series [2] is 4 mg/L (≈ 10.5 µM). In series [1] (10 mg solid active, alone or in 3 wt-% polymer solution in CIPAC water D, 24 hours), this compound yielded a Solubility of fluxapyroxad of 10 pmm. As to `NC(=O)N1c2ccccc2C=Cc2ccccc21` [carbamazepine], the Solubility of carbamazepine in series [1] (setting [3]) came out at 181 pmm.

`N#Cc1nn(-c2c(Cl)cc(C(F)(F)F)cc2Cl)c(N)c1[S+]([O-])C(F)(F)F` (centres unmarked) [Fipronil, fipronil] displayed a Solubility of fipronil in series [1] of 12 pmm.
